Legend:
Assay type in all cases: biochemical
Abl(h) = biological target: T1, Abl(h) (Homo sapiens, UniProt P00519); assay: kinase profile, radiometric assay, Abl
T1 construct: purchased Eurofins, Dundee, Scotland
Protocol: (§1) Enzymatic biochemical activities were evaluated in radiometric protein kinase assays (Eurofins, Dundee, Scotland). Kinases are incubated with buffer, substrate and [γ-^33P]-ATP (specific activity approx. 500 cpm/pmol, concentration as required). The reaction is initiated by the addition of the MgATP mix. After incubation for 40 minutes at room temperature, the reaction is stopped by the addition of 3% phosphoric acid solution. 10 μL of the reaction is then spotted onto a P30 filtermat and washed three times for 5 minutes in 75 mM phosphoric acid and once in methanol prior to drying and scintillation counting.
(§2) All compounds are prepared to 50× final assay concentration in 100% DMSO. Positive control wells contain all components of the reaction with 2% DMSO. Blank wells contain all components of the reaction, with a reference inhibitor replacing the compound of interest. Each kinase is assigned a standard assay concentration of ATP within 20 μM of its apparent KM. Compounds were screened at 1 μM in duplicate or tested at 10 concentrations at half log dilution starting from 10 μM in singlicate. Dose response curves were fitted with four parameter logistic curve to obtain IC50 values. The average coefficient of variation (CV) of the conducted assay is 4.4%.

B-Raf(h) = biological target: T2, B-Raf(h) (Homo sapiens, UniProt P15056); assay: kinase profile, radiometric assay, B-Raf
T2 construct: purchased Eurofins, Dundee, Scotland
T2 sequence (P15056 whole entry): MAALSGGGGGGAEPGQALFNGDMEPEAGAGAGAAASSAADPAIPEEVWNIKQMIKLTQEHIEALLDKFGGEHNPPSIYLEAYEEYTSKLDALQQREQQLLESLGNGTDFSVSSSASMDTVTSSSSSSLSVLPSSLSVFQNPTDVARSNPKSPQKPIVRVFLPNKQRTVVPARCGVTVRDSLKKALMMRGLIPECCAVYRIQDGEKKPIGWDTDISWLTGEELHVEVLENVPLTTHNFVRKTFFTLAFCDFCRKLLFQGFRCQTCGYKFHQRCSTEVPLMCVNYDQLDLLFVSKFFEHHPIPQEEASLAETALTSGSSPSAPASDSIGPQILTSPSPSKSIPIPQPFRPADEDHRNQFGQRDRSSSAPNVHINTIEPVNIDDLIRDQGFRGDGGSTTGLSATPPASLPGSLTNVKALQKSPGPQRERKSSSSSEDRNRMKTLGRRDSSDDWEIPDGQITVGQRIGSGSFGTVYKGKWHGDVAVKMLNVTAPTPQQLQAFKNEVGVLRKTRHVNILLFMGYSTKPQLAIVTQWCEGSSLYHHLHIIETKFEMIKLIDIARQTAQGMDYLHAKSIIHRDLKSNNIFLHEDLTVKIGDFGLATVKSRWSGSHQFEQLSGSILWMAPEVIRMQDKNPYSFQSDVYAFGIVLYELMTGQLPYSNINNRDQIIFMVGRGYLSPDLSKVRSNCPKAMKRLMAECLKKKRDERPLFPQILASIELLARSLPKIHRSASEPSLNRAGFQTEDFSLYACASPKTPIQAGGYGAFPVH
Protocol: as §1, §2

ErbB2(h) = biological target: T3, ErbB2(h) (Homo sapiens, UniProt P04626); assay: kinase profile, radiometric assay, ErbB2
T3 construct: purchased Eurofins, Dundee, Scotland
T3 sequence (P04626 23-1255): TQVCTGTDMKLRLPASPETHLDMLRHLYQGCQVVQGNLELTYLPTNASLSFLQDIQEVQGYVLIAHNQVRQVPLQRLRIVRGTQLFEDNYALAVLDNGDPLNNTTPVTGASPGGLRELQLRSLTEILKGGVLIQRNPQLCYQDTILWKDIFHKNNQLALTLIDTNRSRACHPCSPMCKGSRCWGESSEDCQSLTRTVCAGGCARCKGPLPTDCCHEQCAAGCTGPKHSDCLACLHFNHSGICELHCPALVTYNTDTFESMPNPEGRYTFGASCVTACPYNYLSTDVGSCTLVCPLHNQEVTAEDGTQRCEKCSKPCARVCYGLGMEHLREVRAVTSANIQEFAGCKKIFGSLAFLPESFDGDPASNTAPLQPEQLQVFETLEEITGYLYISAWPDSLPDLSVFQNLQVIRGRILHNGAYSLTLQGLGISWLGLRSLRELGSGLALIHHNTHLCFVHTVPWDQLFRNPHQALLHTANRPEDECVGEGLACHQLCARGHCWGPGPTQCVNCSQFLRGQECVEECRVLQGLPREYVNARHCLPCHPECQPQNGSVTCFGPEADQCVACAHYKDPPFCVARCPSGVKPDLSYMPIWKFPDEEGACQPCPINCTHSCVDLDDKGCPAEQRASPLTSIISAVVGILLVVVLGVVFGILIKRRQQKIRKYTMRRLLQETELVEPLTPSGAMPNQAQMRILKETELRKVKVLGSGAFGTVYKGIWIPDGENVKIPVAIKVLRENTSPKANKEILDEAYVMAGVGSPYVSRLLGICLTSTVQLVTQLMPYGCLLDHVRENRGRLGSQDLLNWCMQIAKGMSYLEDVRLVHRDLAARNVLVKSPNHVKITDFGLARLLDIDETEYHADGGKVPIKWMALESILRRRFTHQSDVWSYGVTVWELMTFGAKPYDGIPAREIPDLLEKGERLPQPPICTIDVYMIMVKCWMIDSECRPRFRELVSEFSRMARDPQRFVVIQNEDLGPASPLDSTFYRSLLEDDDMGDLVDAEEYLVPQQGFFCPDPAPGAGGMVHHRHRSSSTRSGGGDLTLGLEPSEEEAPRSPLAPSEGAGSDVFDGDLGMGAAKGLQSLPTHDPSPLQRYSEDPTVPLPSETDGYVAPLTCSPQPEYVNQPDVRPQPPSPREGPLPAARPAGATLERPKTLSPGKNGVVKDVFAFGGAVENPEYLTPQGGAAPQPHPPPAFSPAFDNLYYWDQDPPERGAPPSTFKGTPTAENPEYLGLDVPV
Protocol: as §1, §2

JNK1α1(h) = biological target: T4, JNK1α1(h) (Homo sapiens, UniProt P45983); assay: kinase profile, radiometric assay, JNK1α1
T4 construct: purchased Eurofins, Dundee, Scotland
T4 sequence (P45983 1-384 isoform P45983-2): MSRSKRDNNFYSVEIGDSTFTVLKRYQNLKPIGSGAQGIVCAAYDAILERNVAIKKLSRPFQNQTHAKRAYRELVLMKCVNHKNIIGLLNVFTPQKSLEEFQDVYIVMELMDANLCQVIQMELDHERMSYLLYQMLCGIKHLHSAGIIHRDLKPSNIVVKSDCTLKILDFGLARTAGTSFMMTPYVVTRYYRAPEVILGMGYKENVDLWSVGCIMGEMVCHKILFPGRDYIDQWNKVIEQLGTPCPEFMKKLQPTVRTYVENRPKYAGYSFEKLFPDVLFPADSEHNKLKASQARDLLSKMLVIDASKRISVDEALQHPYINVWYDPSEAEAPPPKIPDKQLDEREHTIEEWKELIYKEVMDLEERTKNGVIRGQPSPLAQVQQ
Protocol: as §1, §2

Aurora-B(h) = biological target: T5, Aurora-B(h) (Homo sapiens, UniProt Q96GD4); assay: kinase profile, radiometric assay, Aurora-B
T5 construct: purchased Eurofins, Dundee, Scotland
T5 sequence (Q96GD4 whole entry): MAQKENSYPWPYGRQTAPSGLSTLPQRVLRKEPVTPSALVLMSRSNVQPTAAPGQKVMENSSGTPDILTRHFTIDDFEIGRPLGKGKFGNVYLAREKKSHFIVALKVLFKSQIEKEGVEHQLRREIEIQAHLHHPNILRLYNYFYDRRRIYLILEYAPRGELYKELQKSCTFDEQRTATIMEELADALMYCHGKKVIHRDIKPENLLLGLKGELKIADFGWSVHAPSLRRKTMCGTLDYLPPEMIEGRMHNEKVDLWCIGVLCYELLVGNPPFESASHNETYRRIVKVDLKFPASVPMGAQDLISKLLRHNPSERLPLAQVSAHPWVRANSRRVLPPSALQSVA
Protocol: as §1, §2

Src(1-530)(h) = biological target: T6, Src(1-530)(h) (Homo sapiens, UniProt P12931); assay: kinase profile, radiometric assay, Src(1-530)
T6 construct: Src(1-530)
Protocol: as §1, §2

JNK2α2(h) = biological target: T7, JNK2α2(h) (Homo sapiens, UniProt P45984); assay: kinase profile, radiometric assay, JNK2α2
T7 construct: purchased Eurofins, Dundee, Scotland
Protocol: as §1, §2

IKKβ(h) = biological target: T8, IKKβ(h) (Homo sapiens, UniProt O14920); assay: kinase profile, radiometric assay, IKKβ
T8 construct: purchased Eurofins, Dundee, Scotland
T8 sequence (O14920 1-756): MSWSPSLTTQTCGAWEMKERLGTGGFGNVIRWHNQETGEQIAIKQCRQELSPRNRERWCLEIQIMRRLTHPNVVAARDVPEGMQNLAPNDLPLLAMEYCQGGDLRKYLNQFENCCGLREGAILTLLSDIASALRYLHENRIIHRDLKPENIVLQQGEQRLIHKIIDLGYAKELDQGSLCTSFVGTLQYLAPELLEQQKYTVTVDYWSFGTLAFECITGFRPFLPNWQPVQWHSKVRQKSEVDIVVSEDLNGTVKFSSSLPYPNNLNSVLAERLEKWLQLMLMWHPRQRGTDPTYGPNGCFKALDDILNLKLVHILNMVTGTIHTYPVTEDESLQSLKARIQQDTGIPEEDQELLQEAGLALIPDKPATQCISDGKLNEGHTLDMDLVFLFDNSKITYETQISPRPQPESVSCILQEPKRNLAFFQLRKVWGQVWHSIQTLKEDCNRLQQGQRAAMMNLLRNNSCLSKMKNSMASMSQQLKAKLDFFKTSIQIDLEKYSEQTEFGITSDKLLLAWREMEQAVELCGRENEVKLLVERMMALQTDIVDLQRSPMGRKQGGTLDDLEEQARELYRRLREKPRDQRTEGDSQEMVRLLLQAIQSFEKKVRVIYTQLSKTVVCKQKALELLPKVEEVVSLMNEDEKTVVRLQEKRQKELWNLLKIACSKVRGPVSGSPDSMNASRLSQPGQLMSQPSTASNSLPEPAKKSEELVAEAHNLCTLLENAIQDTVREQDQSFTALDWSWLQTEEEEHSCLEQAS
Protocol: as §1, §2

Plk1(h) = biological target: T9, Plk1(h) (Homo sapiens, UniProt P53350); assay: kinase profile, radiometric assay, Plk1
T9 construct: purchased Eurofins, Dundee, Scotland
T9 sequence (P53350 whole entry): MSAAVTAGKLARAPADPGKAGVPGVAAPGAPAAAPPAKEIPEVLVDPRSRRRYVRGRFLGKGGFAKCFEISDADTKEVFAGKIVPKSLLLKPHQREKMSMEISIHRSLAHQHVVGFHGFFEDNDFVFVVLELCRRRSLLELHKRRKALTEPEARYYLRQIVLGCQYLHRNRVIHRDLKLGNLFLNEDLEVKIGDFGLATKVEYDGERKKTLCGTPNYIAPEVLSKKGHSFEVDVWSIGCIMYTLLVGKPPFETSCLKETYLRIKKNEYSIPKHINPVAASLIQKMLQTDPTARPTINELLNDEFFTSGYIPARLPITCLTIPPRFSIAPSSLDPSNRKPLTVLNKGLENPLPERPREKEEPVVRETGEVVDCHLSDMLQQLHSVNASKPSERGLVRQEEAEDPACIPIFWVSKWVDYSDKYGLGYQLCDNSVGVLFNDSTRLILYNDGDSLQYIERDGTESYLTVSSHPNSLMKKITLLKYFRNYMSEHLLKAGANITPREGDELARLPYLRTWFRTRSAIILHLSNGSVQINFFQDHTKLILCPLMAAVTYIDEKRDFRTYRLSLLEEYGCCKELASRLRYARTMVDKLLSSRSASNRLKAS
Protocol: as §1, §2

CLK4(h) = biological target: T10, CLK4(h) (Homo sapiens, UniProt Q9HAZ1); assay: radiometric protein kinase assay, CLK4; settings: enzyme inhibition, ATP 10 μM
T10 construct: purchased Eurofins, Dundee, Scotland
T10 sequence (Q9HAZ1 whole entry): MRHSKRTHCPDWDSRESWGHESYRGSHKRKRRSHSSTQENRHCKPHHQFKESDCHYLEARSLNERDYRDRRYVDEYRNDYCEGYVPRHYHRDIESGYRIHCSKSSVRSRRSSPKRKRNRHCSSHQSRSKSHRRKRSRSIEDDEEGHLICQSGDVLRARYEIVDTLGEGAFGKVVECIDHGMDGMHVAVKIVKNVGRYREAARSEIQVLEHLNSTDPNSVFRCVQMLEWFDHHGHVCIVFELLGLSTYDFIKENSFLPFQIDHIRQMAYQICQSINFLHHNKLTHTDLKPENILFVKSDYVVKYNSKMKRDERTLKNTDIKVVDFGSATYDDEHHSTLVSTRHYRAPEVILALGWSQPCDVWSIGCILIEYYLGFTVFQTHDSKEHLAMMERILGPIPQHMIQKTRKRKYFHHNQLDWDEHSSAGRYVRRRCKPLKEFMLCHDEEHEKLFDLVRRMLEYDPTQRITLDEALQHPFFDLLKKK
Protocol: as §1, §2

JAK3(h) = biological target: T11, JAK3(h) (Homo sapiens, UniProt P52333); assay: kinase profile, radiometric assay, JAK3
T11 construct: purchased Eurofins, Dundee, Scotland
T11 sequence (P52333 1-1124): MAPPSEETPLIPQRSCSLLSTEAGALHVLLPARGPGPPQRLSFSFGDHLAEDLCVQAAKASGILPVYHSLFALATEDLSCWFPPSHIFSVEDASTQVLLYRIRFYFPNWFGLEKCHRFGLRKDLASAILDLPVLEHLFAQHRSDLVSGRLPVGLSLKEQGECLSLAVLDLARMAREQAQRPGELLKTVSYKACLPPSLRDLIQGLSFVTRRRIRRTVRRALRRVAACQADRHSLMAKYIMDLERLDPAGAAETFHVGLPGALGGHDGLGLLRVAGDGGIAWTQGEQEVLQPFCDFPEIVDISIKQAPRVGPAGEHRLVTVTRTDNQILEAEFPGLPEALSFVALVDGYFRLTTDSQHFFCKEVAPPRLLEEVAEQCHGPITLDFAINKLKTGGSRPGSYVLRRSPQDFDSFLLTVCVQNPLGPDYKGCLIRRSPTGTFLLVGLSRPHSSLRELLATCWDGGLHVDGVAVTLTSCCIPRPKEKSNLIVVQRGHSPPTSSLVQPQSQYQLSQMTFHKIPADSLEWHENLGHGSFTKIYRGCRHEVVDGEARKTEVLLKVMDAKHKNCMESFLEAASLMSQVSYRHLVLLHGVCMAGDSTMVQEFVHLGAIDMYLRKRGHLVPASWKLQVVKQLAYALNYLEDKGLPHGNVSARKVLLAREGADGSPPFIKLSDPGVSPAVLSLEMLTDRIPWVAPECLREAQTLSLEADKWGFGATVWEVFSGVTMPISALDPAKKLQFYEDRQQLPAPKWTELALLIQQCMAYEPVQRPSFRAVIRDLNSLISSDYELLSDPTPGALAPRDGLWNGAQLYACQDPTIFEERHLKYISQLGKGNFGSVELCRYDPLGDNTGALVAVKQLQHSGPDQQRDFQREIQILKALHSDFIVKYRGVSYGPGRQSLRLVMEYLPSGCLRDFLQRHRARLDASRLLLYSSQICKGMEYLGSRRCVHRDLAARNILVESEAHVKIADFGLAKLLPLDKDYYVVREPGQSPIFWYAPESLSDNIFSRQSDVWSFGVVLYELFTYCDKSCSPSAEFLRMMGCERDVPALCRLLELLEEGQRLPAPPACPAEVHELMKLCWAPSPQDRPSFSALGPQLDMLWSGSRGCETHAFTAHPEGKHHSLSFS
Protocol: as §1, §2

T1 sequence (P00519 whole entry): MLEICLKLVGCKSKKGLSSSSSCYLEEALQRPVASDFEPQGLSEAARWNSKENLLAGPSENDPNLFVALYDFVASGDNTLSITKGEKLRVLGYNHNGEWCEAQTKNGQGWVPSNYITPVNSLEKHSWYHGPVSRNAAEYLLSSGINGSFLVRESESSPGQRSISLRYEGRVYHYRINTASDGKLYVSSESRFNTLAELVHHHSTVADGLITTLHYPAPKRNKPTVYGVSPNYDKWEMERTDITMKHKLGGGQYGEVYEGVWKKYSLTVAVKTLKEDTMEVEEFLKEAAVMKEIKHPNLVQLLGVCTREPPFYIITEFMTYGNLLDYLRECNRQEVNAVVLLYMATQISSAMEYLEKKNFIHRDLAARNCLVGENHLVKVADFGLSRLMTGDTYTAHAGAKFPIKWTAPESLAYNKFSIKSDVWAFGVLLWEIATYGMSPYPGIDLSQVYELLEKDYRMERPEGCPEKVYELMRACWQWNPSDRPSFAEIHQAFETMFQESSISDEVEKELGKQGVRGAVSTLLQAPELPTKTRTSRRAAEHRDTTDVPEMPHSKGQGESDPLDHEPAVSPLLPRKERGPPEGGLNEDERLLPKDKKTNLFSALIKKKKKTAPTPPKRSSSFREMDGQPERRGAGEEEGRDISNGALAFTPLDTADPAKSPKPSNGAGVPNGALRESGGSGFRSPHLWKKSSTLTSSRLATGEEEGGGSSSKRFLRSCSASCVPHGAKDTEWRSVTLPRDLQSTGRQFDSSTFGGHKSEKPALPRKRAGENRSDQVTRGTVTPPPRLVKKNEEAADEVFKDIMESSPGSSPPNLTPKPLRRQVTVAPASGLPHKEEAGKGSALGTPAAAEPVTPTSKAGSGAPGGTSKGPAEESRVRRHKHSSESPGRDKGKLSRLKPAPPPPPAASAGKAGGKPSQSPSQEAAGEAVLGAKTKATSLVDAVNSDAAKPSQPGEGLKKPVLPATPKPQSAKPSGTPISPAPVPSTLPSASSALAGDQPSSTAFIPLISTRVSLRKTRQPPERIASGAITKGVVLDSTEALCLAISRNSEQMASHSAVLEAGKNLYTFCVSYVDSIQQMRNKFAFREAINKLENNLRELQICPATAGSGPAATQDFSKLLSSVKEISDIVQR

SMILES | inhibition at 1 µM (Abl(h)) | inhibition at 1 µM (B-Raf(h)) | inhibition at 1 µM (ErbB2(h)) | inhibition at 1 µM (JNK1α1(h)) | inhibition at 1 µM (Aurora-B(h)) | inhibition at 1 µM (Src(1-530)(h)) | inhibition at 1 µM (JNK2α2(h)) | inhibition at 1 µM (IKKβ(h)) | inhibition at 1 µM (Plk1(h)) | IC50 (CLK4(h)) | inhibition at 1 µM (JAK3(h))
CC(C)n1cnc2c(Nc3cccc(Cl)c3)nc(N[C@@H]3CCCC[C@@H]3N)nc21 [Compound 9, N^2-((1R,2S)-2-Aminocyclohexyl)-N^6-(3-Chlorophenyl)-9-Isopropyl-9H-Purine-2,6-Diamine] | 2% | 21% | 0% | -1% | -16% | 69% | 4% | -5% | 9% | 50 nM | 4%
CC(C)n1cnc2c(Nc3cc(N)cc(Cl)c3)nc(NC3CCCCC3N)nc21 (racemic) [Compound 14, Racemic N^6-Cis-(3-Amino-5-Chlorophenyl)-N^2-(2-Aminocyclohexyl)-9-Isopropyl-9H-Purine-2,6-Diamine] | 8% | 5% | 3% | -6% | -16% | 78% | -6% | -9% | 60% | 54 nM | 0%
CC(C)n1cnc2c(Nc3cccc(Cl)c3)nc(N[C@H]3CCCC[C@@H]3N)nc21 [Compound 8, N^2-((1S,2S)-2-Aminocyclohexyl)-V-(3-Chlorophenyl)-9-Isopropyl-9H-Purine-2,6-Diamine] | -2% | 10% | 2% | 3% | -15% | 22% | 1% | -2% | 49% | 86 nM | 0%
